Experimental data published in ChEMBL document CHEMBL6127079, “Design and synthesis of spiro[pyrrolidine-3,3'-quinoline]-2,2'-dione derivatives as novel antifungal agents targeting chitin synthase” (Eur J Med Chem, 2024).
Converted amounts (≈) assume the structure as drawn. The source made the active and inactive calls. No cut-off for these calls is given here.

What was measured:
Candida albicans [1] = test: Antifungal activity against Candida albicans ATCC 76615 incubated for 24 hrs by half broth dilution based checkerboard method; assay type: functional
Aspergillus fumigatus [2] = test: Antifungal activity against Aspergillus fumigatus GIMCC 3.19 assessed as Polyoxin B MIC incubated for 24 hrs in presence of fluconazole by half broth dilution based checkerboard method; assay type: functional
Cryptococcus neoformans [3] = test: Antifungal activity against drug-resistant Cryptococcus neoformans ATCC 32719 assessed as inhibition of cell wall synthesis in presence of sorbitol incubated for 24 hrs; assay type: functional
Aspergillus fumigatus [4] = test: Antifungal activity against drug-resistant Aspergillus fumigatus GIMCC 3.19 assessed as inhibition of cell wall synthesis in presence of sorbitol incubated for 24 hrs; assay type: functional
Candida tropicalis [5] = test: Non-competitive inhibition of chitin synthase extracted from Candida tropicalis ATCC 750 using UDP-GlcNAc as substrate assessed as decrease in Vm with constant Km at 0 to 0.15 mM by Lineweaver-Burk plot analysis; conditions: dose 0-0.15 mM
Cryptococcus neoformans [6] = test: Antifungal activity against Cryptococcus neoformans ATCC 32719 incubated for 24 hrs by half broth dilution based checkerboard method; assay type: functional
A549 [7] = test: Cytotoxicity against human A549 cells assessed as reduction in cell viability at 128 microg/ml incubated for 24 hrs by CCK-8 assay relative to control; assay type: toxicity, cell-based; conditions: a549, 24 h, at 128 µg/mL
Candida albicans [8] = test: Antifungal activity against Candida albicans ATCC 76615 assessed as inhibition of growth incubated for 24 hrs by two-fold serial dilution method; assay type: functional
Aspergillus flavus [9] = test: Antifungal activity against Aspergillus flavus ATCC 16870 assessed as Polyoxin B MIC incubated for 24 hrs in presence of fluconazole by half broth dilution based checkerboard method; assay type: functional
Cryptococcus neoformans [10] = test: Antifungal activity against fluconazole-resistant Cryptococcus neoformans ATCC 32719 assessed as inhibition of fungal growth incubated for 24 to 72 hrs; assay type: functional; conditions: time 24-72 hrs
Aspergillus fumigatus [11] = test: Synergistic antifungal activity against Aspergillus fumigatus GIMCC 3.19 assessed as fractional inhibitory concentration index in presence of fluconazole incubated for 24 hrs by half broth dilution based checkerboard method; assay type: functional
Candida albicans [12] = test: Antifungal activity against drug-resistant Candida albicans ATCC 76615 assessed as inhibition of cell wall synthesis in presence of sorbitol incubated for 24 hrs; assay type: functional
[13] = Inhibition of chitin synthase extracted from Candida tropicalis ATCC 750 using UDP-GlcNAc as substrate assessed as inhibition rate by TMB based microplate analyzer relative to control
Aspergillus fumigatus [14] = test: Antifungal activity against fluconazole-resistant Aspergillus fumigatus GIMCC 3.19 assessed as inhibition of fungal growth incubated for 24 to 72 hrs; assay type: functional; conditions: time 24-72 hrs
Cryptococcus neoformans [15] = test: Antifungal activity against Cryptococcus neoformans ATCC 32719 assessed as fluconazole MIC incubated for 24 hrs in presence of fluconazole by half broth dilution based checkerboard method; assay type: functional
Candida albicans [16] = test: Antifungal activity against micafungin-resistant Candida albicans ATCC 76615 assessed as inhibition of fungal growth incubated for 24 to 72 hrs; assay type: functional; conditions: time 24-72 hrs
[17] = Non-competitive inhibition of chitin synthase extracted from Candida tropicalis ATCC 750 using UDP-GlcNAc as substrate assessed as inhibition constant by Lineweaver-Burk plot analysis
Candida albicans [18] = test: Antifungal activity against Candida albicans ATCC 76615 assessed as fluconazole MIC incubated for 24 hrs in presence of fluconazole by half broth dilution based checkerboard method; assay type: functional
Aspergillus fumigatus [19] = test: Synergistic antifungal activity against Aspergillus fumigatus GIMCC 3.19 assessed as fractional inhibitory concentration index in presence of Polyoxin B incubated for 24 hrs by half broth dilution based checkerboard method; assay type: functional
Aspergillus flavus [20] = test: Antifungal activity against fluconazole-resistant Aspergillus flavus ATCC 16870 assessed as inhibition of fungal growth incubated for 24 to 72 hrs; assay type: functional; conditions: time 24-72 hrs
A549 [21] = test: Cytotoxicity against human A549 cells assessed as reduction in cell viability at 64 microg/ml incubated for 24 hrs by CCK-8 assay relative to control; assay type: toxicity, cell-based; conditions: a549, 24 h, at 64 µg/mL
A549 [22] = test: Cytotoxicity against human A549 cells assessed as reduction in cell viability at 4 microg/ml incubated for 24 hrs by CCK-8 assay relative to control; assay type: toxicity, cell-based; conditions: a549, 24 h, at 4 µg/mL
Candida albicans [23] = test: Antifungal activity against fluconazole-resistant Candida albicans ATCC 76615 assessed as inhibition of fungal growth incubated for 24 to 72 hrs; assay type: functional; conditions: time 24-72 hrs
Cryptococcus neoformans [24] = test: Antifungal activity against Cryptococcus neoformans ATCC 32719 assessed as inhibition of growth incubated for 24 hrs by two-fold serial dilution method; assay type: functional
Aspergillus flavus [25] = test: Antifungal activity against Aspergillus flavus ATCC 16870 assessed as inhibition of growth incubated for 24 hrs by two-fold serial dilution method; assay type: functional
Cryptococcus neoformans [26] = test: Synergistic antifungal activity against Cryptococcus neoformans ATCC 32719 assessed as fractional inhibitory concentration index in presence of fluconazole incubated for 24 hrs by half broth dilution based checkerboard method; assay type: functional
Candida albicans [27] = test: Synergistic antifungal activity against Candida albicans ATCC 76615 assessed as fractional inhibitory concentration index in presence of Polyoxin B incubated for 24 hrs by half broth dilution based checkerboard method; assay type: functional
Aspergillus fumigatus [28] = test: Antifungal activity against Aspergillus fumigatus GIMCC 3.19 assessed as fluconazole MIC incubated for 24 hrs in presence of fluconazole by half broth dilution based checkerboard method; assay type: functional
Aspergillus fumigatus [29] = test: Antifungal activity against Aspergillus fumigatus GIMCC 3.19 assessed as inhibition of growth incubated for 24 hrs by two-fold serial dilution method; assay type: functional
A549 [30] = test: Cytotoxicity against human A549 cells assessed as reduction in cell viability at 32 microg/ml incubated for 24 hrs by CCK-8 assay relative to control; assay type: toxicity, cell-based; conditions: a549, 24 h, at 32 µg/mL
Cryptococcus neoformans [31] = test: Antifungal activity against Cryptococcus neoformans ATCC 32719 assessed as Polyoxin B MIC incubated for 24 hrs in presence of fluconazole by half broth dilution based checkerboard method; assay type: functional
Cryptococcus neoformans [32] = test: Synergistic antifungal activity against Cryptococcus neoformans ATCC 32719 assessed as fractional inhibitory concentration index in presence of Polyoxin B incubated for 24 hrs by half broth dilution based checkerboard method; assay type: functional
A549 [33] = test: Cytotoxicity against human A549 cells assessed as reduction in cell viability at 16 microg/ml incubated for 24 hrs by CCK-8 assay relative to control; assay type: toxicity, cell-based; conditions: a549, 24 h, at 16 µg/mL
Candida tropicalis [34] = test: Inhibition of chitin synthase extracted from Candida tropicalis ATCC 750 using UDP-GlcNAc as substrate assessed as inhibition rate at 300 ug/ml by TMB based microplate analyzer relative to control; conditions: dose 300.0 µg/ml
Aspergillus fumigatus [35] = test: Antifungal activity against Aspergillus fumigatus GIMCC 3.19 incubated for 24 hrs by half broth dilution based checkerboard method; assay type: functional
Candida albicans [36] = test: Synergistic antifungal activity against Candida albicans ATCC 76615 assessed as fractional inhibitory concentration index in presence of fluconazole incubated for 24 hrs by half broth dilution based checkerboard method; assay type: functional
Aspergillus flavus [37] = test: Antifungal activity against Aspergillus flavus ATCC 16870 assessed as fluconazole MIC incubated for 24 hrs in presence of fluconazole by half broth dilution based checkerboard method; assay type: functional
Aspergillus flavus [38] = test: Antifungal activity against Aspergillus flavus ATCC 16870 incubated for 24 hrs by half broth dilution based checkerboard method; assay type: functional
Candida albicans [39] = test: Antifungal activity against Candida albicans ATCC 76615 assessed as Polyoxin B MIC incubated for 24 hrs in presence of fluconazole by half broth dilution based checkerboard method; assay type: functional
Aspergillus flavus [40] = test: Synergistic antifungal activity against Aspergillus flavus ATCC 16870 assessed as fractional inhibitory concentration index in presence of Polyoxin B incubated for 24 hrs by half broth dilution based checkerboard method; assay type: functional
Aspergillus flavus [41] = test: Synergistic antifungal activity against Aspergillus flavus ATCC 16870 assessed as fractional inhibitory concentration index in presence of fluconazole incubated for 24 hrs by half broth dilution based checkerboard method; assay type: functional
Aspergillus flavus [42] = test: Antifungal activity against drug-resistant Aspergillus flavus ATCC 16870 assessed as inhibition of cell wall synthesis in presence of sorbitol incubated for 24 hrs; assay type: functional
A549 [43] = test: Cytotoxicity against human A549 cells assessed as reduction in cell viability at 8 microg/ml incubated for 24 hrs by CCK-8 assay relative to control; assay type: toxicity, cell-based; conditions: a549, 24 h, at 8 µg/mL

Compound: Cc1cc([N+](=O)[O-])ccc1NC(=O)C1CCN(CC(=O)Nc2ccc3c(c2)NC(=O)C2(CCNC2=O)C3)CC1 (racemic)
- MIC (Candida albicans [1]): 8 µg/mL
- MIC (Aspergillus fumigatus [2]): 16 µg/mL
- MIC (Cryptococcus neoformans [3]): 512 µg/mL
- MIC (Aspergillus fumigatus [4]): 128 µg/mL
- inhibition (Candida tropicalis [5]): Active
- MIC (Cryptococcus neoformans [6]): 8 µg/mL
- Activity (A549 [7]): 73.5%
- MIC (Candida albicans [8]): 8 µg/mL (≈ 15 µM)
- MIC (Aspergillus flavus [9]): 16 µg/mL
- MIC (Cryptococcus neoformans [10]): 64 µg/mL (≈ 120 µM)
- fractional inhibitory concentration index (FICI) (Aspergillus fumigatus [11]): 2
- MIC (Candida albicans [12]): 256 µg/mL
- IC50 [13]: 93 µM
- MIC (Aspergillus fumigatus [14]): 32 µg/mL (≈ 59.9 µM)
- MIC (Cryptococcus neoformans [15]): 1.5 µg/mL
- MIC (Candida albicans [16]): 64 µg/mL (≈ 120 µM)
- Ki [17]: 108 µM
- MIC (Candida albicans [18]): 1.25 µg/mL
- fractional inhibitory concentration index (FICI) (Aspergillus fumigatus [19]): 2
- MIC (Aspergillus flavus [20]): 32 µg/mL (≈ 59.9 µM)
- Activity (A549 [21]): 87.6%
- Activity (A549 [22]): 97.1%
- MIC (Candida albicans [23]): 64 µg/mL (≈ 120 µM)
- MIC (Cryptococcus neoformans [24]): 8 µg/mL (≈ 15 µM)
- MIC (Aspergillus flavus [25]): 16 µg/mL (≈ 29.9 µM)
- fractional inhibitory concentration index (FICI) (Cryptococcus neoformans [26]): 0.75
- fractional inhibitory concentration index (FICI) (Candida albicans [27]): 0.625
- MIC (Aspergillus fumigatus [28]): 0.75 µg/mL
- MIC (Aspergillus fumigatus [29]): 16 µg/mL (≈ 29.9 µM)
- Activity (A549 [30]): 91.9%
- MIC (Cryptococcus neoformans [31]): 8 µg/mL
- fractional inhibitory concentration index (FICI) (Cryptococcus neoformans [32]): 1.5
- Activity (A549 [33]): 92.2%
- inhibition (Candida tropicalis [34]): 85.2%
- MIC (Aspergillus fumigatus [35]): 16 µg/mL
- fractional inhibitory concentration index (FICI) (Candida albicans [36]): 1
- MIC (Aspergillus flavus [37]): 0.625 µg/mL
- MIC (Aspergillus flavus [38]): 16 µg/mL
- MIC (Candida albicans [39]): 8 µg/mL
- fractional inhibitory concentration index (FICI) (Aspergillus flavus [40]): 0.75
- fractional inhibitory concentration index (FICI) (Aspergillus flavus [41]): 1.5
- MIC (Aspergillus flavus [42]): 256 µg/mL
- Activity (A549 [43]): 93.8%
